Data published in paper PMC11563544 (Journal of Cerebral Blood Flow & Metabolism, 2024).

Test system: alpha-2C adrenergic receptor (α2CR)
Assay: in vivo PET receptor occupancy, competition with […]ORM-13070
Design: species or system Macaca fascicularis

BAY 292
EC50: 0.03339 ± 0.01191 µg/mL
